The structures appear in SMILES notation.

Data on one compound can be found in US8039501B2, “Synephrine derivatives useful as anti-inflammatory agents” (Universiteit Gent, priority 2005, dated 2011).

One data set deals with MM1.S cell line. Briefly: MTT test, cell viability of MM1.S cells. The note with it: Homo sapiens, MM1.S; 10^−4 M; 10% FCS; FIG. 4A; read-out: Inhibition of MM1.S cell viability. The class given is cell-based, human. The procedure: (§1) The MTT test is a standard assay addressing cell toxicity of a compound. It is based on the principle that after 3-4 hours of cell incubation with MTT (3-(4,5-dimethylthiazole-2-yl)-2,5-diphenyl tetrazolium bromide) so-called purple formazan crystals develop in living and early apoptotic cells. Dead cells don't produce formazan crystals.
(§2) Different cell lines were tested. Unless indicated differently, A549 human lung epithelial cells (derived from lung carcinoma) and L929sA murine fibroblast cells were cultured in DMEM with 10% FCS, 100 U/ml penicillin and 100 μg/ml streptomycin. Unless indicated differently, the human multiple myeloma cell lines L363, U266 and MM1.S were cultured in RPMI 1640 with Glutamax-I, supplemented with 10% FCS, 100 U/ml penicillin and 100 μg/ml streptomycin. Cells were seeded at 5000 cells/well (for adherent A549 and L929sA cells) or at 10000 cells/well (for the multiple myeloma lines in suspension) in 96 well plates. Cells were incubated in the presence of the respective synephrine compounds or vehicle (EtOH; for control test) in a final volume of 0.2 ml for 24 or 48 hours at 37° C. Subsequently, 20 μl of MTT solution (5 mg/ml in phosphate-buffered saline) was added to each well. After 4 hours incubation at 37° C., 80 μl of the extraction buffer (10% SDS, 0.01 M HCl) was added. After overnight incubation at room temperature, the optical densities at 590 nm were measured. Results are illustrated in FIGS. 2 to 6 and are expressed as percentage of viable cells as compared to vehicle-treated controls.
(§3) The MTT test was further extended to include alternative synephrine derivatives and a range of multiple myeloma cell lines for which the results are illustrated by FIGS. 3A, 3B and 4A. Human multiple myeloma cell lines L363, U266 and MM1.S were cultured in RPMI 1640 with Glutamax-I, supplemented with 10% FCS, 100 U/ml penicillin and 100 μg/ml streptomycin. Cells were seeded at 10000 cells/well in 96 well plates. Cells were incubated in the presence of test compounds or vehicle in a final volume of 0.2 ml for 24 or 48 hours at 37° C. The test compounds included in the test were the synephrine derivatives CpdA, Naphth, Benz and Isobut, and DEX as a comparative example. Subsequently, 20 μl of MTT solution (5 mg/ml in phosphate-buffered saline) was added to each well. After 4 hours incubation at 37° C., 80 μl of the extraction buffer (10% SDS, 0.01 M HCl) was added. After 48 hours incubation at room temperature, the optical densities at 590 nm were measured. Results are expressed as percentage of viable cells as compared to vehicle-treated controls.

In data set [1] the test system is multiple myeloma cells U266. The data set can be described thus: MTT test, cell viability of U266 cells. Particulars: Homo sapiens, U-266; 10^−4M; serum-free medium; FIG. 2A; read-out: Cell killing / reduction of viability of U266 cells. The data set is classed as cell-based, human. The procedure:
as §1, §2, §3

Data set [2] is described as follows: MTT test, cell viability of L929sA fibroblasts. The data set is classed as cell-based, murine. The note with it: mouse, L929sA fibroblast cells; 10^−4 M; 48 hours; FIG. 5B; read-out: Block of L929sA cell viability. The procedure:
as §1, §2
In a further MTT test, the activity of the synephrine derivatives on the inhibition of cell viability of non-immune cells was measured. […] Tests were performed for 24 hours and for 48 hours. The results are illustrated by FIGS. 5A and 5B for L929 cells, and by FIGS. 6A and 6B for A549 cells. It was observed that CpdA at 10^−5 M blocked cell viability of L929sA and A549 for not more than 10%.
On the technique in general: Tetrazolium assays rely on reduction of a dye to a coloured formazan, in cell work by metabolically active cells.

The test system of data set [3] is B16BL6 melanoma, PG19 melanoma and Lewis Lung Carcinoma. Briefly: In vivo melanoma model, subcutaneous tumors in mice. Particulars: eight days of treatment with 200 μg; PBS-treated 1.51+/−0.13 g. The procedure:
In vivo melanoma model • Cells of B16BL6 melanoma, PG19 melanoma and Lewis Lung Carcinoma are kept in culture in DMEM supplemented with fetal calf serum, antibiotics and L-glutamine. Cells are harvested, washed three times in LPS-free PBS, and brought to a density of 6×10^6/ml (B16BL6) or 20×10^6/ml (PG19, EL4 and LLC). 100 μl of the cell suspension is injected subcutaneously into shaven, right hind limbs of the mice. When the tumors reach a size of 50-70 mm^2, daily treatment is started with dexamethasone (DEX), hydrocortisone (HYDRO), compound A (CpdA) or its analogues (intraperitoneally (i.p.) or in drinking water). DEX, HYDRO are diluted in PBS; CpdA is diluted in 20% ethanol. The smaller and larger diameters of the tumor are measured daily with an electronic caliper. Tumor size index (TSI) is defined in mm^2 as (a)×(b), (a) being the longest diameter of the tumor and (b) the diameter perpendicular to (a). […] Each mouse receives daily either PBS or a specific dose of DEX, ranging from 5 μg to 200 μg. […]. […] Toxicity and efficacy of CpdA and analogues will be evaluated.

A short description of data set [4]: Serum ELISA of osteoclast and osteoblast markers in DBA/1 mice. Particulars: 62.5 μg daily, 8 day treatment; FIG. 21A. (An ELISA detects its analyte on a solid surface through an enzyme-linked reagent.)
Source text: DBA/1 mice—Male 8- to 12-wk-old DBA/1 mice were purchased from Janvier and housed following institutional guidelines. All animal procedures were approved by the institutional animal care and ethics committee. […] The human IL-6 and IL-8 cytoset were purchased from BioSource International, Inc. For the detection of TRAP5b in DBA/1 mice serum we used the Mouse TRAP Assay, purchased from Immunodiagnostic systems limited. The osteocalcin EIA kit was purchased from Biomedical Technologies, Inc. All assays were performed according to the manufacturer's instructions.
A further data set concerns MCF7 breast cancer cells. The note with it: 10^−6 M. On the procedure:
In further experiments, nylon arrayfilter hybridization experiments were performed. cDNA array analyses were carried out according to the instructions of the manufacturer (SuperArray Simplicity GEArray™ KIT) on the cDNA arrays cancer pathway finder and stress and toxicity array. Total RNA, obtained by the protocol as described herein above, was used as a template for [α−^33P]-cDNA probe synthesis using the following steps:
A second array hybridization experiment was performed on Human Stress and Toxicity Pathway Finder GEarray Q series. The same protocol was followed as for the array hybridization experiment on the Human Cancer Pathway Finder described herein above.

With `C[C@@H]1C[C@H]2[C@@H]3CCC4=CC(=O)C=C[C@]4(C)[C@@]3(F)[C@@H](O)C[C@]2(C)[C@@]1(O)C(=O)CO` [DEX, dexamethasone, reference compound], the cytotoxicity at 100 µM came to 30% in the data set with MM1.S cell line and 10% in data set [1]. Further, in data set [2], the cytotoxicity at 48 h amounted to 30%. Besides, in data set [3], the “Mean weight of tumors” value was determined as 0.59 ± 0.04 g. For the same compound, in data set [4], the “TRAP5b in mouse serum” value was “increase of TRAP5b in mouse serum”. Further, the “Levels of cyp1A1, FMO1, HMOX2, ATM, bcl2L1, casp1” value in the data set with MCF7 breast cancer cells is listed as “increases levels”.
